In US20160326098A1, “Pharmaceutically Active Compound for Use as Anti-inflammatory Agent” (Pax Forschung GmbH, priority 2013, published 2016):

Legend:
TNF-α = experiment: Plasma TNF-α level, rats with gastric injury without inflammation; format: in vivo; settings: one day after 1.11 mmol/kg, vs control group H, FIG. 21
Method: Plasma TNF-α concentrations were determined in duplicate by means of a commercially available enzyme-linked immunosorbent assay (Quantikine ultrasensitive enzyme-linked immunosorbent assay kit for rat TNF-α; Biomedica Hungaria Kft, Budapest, Hungary). The minimum detectable level was less than 5 pg/ml, and the inter-assay and intra-assay coefficients of variation were less than 10%.
(§1) Further experiments regarding the effect of a compound of formula (I) and a pharmaceutical composition comprising a compound of formula (I), respectively, on gastric injury without inflammation were conducted on rats. 15 animals were randomly allocated into three groups. Group H (n=5) served as sham-operated controls. Samples of all animals were drawn on day 1 of the clinical tests. On day 2 the animals of group I (n=5) were force-fed acetylsalicylic acid (ASS) (1.11 mmol/kg body weight). Group K (n=5) was force-fed 1.11 mmol/kg body weight of the compound according to the invention. […] Fluorescence confocal endomicroscopy was performed to examine the microvasculature and morphologic changes of the mucosa of the distal colon, and full-thickness tissue samples and venous blood samples were taken to determine the biochemical changes in the colon and plasma. The effects were determined by way of measurement of body weight, blood gas analysation and biopsy. […]

xanthine oxidase enzyme [1] = experiment: Xanthine oxidase enzyme activity in tissue, rats with gastric injury without inflammation; format: in vivo; settings: gastric and colon tissue, 1.11 mmol/kg, vs control group H, FIGS. 24a/24b
Method: (§2) The XOR activity was determined in the ultrafiltered, concentrated supernatant by fluorometric kinetic assay based on the conversion of pterine to isoxanthopterine in the presence (total XOR) or absence (xanthine oxidase activity) of the electron acceptor methylene blue.
Further experiments regarding the effect of a compound of formula (I) and a pharmaceutical composition comprising a compound of formula (I), respectively, on gastric injury without inflammation were conducted on rats. 15 animals were randomly allocated into three groups. Group H (n=5) served as sham-operated controls. Samples of all animals were drawn on day 1 of the clinical tests. On day 2 the animals of group I (n=5) were force-fed acetylsalicylic acid (ASS) (1.11 mmol/kg body weight). Group K (n=5) was force-fed 1.11 mmol/kg body weight of the compound according to the invention. Group H only received the respective solvent (25% ethanol in water). One day after the gavage, additional samples were drawn. Fluorescence confocal endomicroscopy was performed to examine the microvasculature and morphologic changes of the mucosa of the distal colon, and full-thickness tissue samples and venous blood samples were taken to determine the biochemical changes in the colon and plasma. The effects were determined by way of measurement of body weight, blood gas analysation and biopsy. […]

xanthine oxidase enzyme [2] = experiment: Xanthine oxidase enzyme activity in tissue, mice with TNBS-induced colitis; format: in vivo; settings: gastric and colon tissue, 1.11 mmol/kg, FIGS. 14a/14b
Method: Colonic inflammation was induced by intracolonic administration of TNBS (2,4,6-trinitrobenzenesulfonic acid) (40 mg/kg in 0.25 ml of 25% aqueous ethanol) through an 8-cm-long soft plastic catheter under transient diethylether anesthesia. In the sham-operated groups, only the vehicle for TNBS was administered. The animals were deprived of food, but not water, for 12 h before the enemas.
as §2
The above-described clinical studies were repeated with animals having colitis which was induced as described above. […] Two days after the enema the effects of the treatment were determined by measurement of body weight, blood gas analysis and biopsy. […] Surgery was performed to allow registration of the hemodynamic parameters at 1 h intervals for 6 h (cardiac output [CO] data were measured only at the end of the experiments). […] In addition, fluorescence confocal endomicroscopy was performed to examine the microvasculature and morphologic changes of the mucosa of the distal colon, and full-thickness tissue samples and venous blood samples were taken to determine the biochemical changes in the colon and plasma.

[3] = tested on: High mobility group box protein 1 (HMGB-1); experiment: Plasma high mobility group protein B1, rats with gastric injury without inflammation; format: in vivo; settings: 1.11 mmol/kg, day 3, vs control group H, FIG. 22
Method: High mobility group box protein 1 (HMGB-1) measurements in plasma:
Blood samples were drawn into chilled polypropylene tubes containing EDTA (1 mg/ml) and were centrifuged at 1200 g for 10 min at 4° C. The plasma samples were then collected and stored at −70° C. until assay. Plasma concentration of HMGB-1 was measured by a commercially available HMGB-1 ELISA kit (Shino-Test Corporation, Kanagawa, Japan).
as §1

nitrite/nitrate (NOx) = experiment: Nitrite/nitrate level, colitis animals, comparison with GM-20 (FIG. 35); format: in vivo, rats; settings: 1.11 mmol/kg body weight, vs sham control group P
Method: The levels of plasma nitrite/nitrate (NOx), stable end products of NO were measured by the Griess reaction. This assay depends on the reduction of nitrate to nitrite, which is then converted into a colored azo dye compound that is detected spectrophotometrically at 540 nm.
The above-described clinical studies were repeated with animals having colitis which was induced as described above. 20 animals (rats) were randomly divided into four groups, wherein group L served as sham-operated control, having no colitis, group M served as second control having colitis but receiving no further treatment, group N having colitis and being treated with 1.11 mmol/kg body weight of ASS and group O having colitis and being treated with 1.11 mmol/kg of the compound according to the invention. One day after the animals received the enema with TNBS (40 mg/kg i.c.), wherein the animals of group L only received the respective solvent, the animals of group N and O were treated with ASS and the compound according to the invention, respectively. The other animals only received the respective solvent again. Two days after the enema the effects of the treatment were determined by measurement of body weight, blood gas analysis and biopsy. […] Surgery was performed to allow registration of the hemodynamic parameters at 1 h intervals for 6 h (cardiac output [CO] data were measured only at the end of the experiments). […] In addition, fluorescence confocal endomicroscopy was performed to examine the microvasculature and morphologic changes of the mucosa of the distal colon, and full-thickness tissue samples and venous blood samples were taken to determine the biochemical changes in the colon and plasma.
The tests were conducted according to the above described protocol. […] Comparative compound GM-20 is described in the state of the art as being suitable for the therapeutic treatment pathologic disorders characterized by degranulation of the mast cells caused by immunogenic hyperstimulation (see U.S. Pat. No. 5,506,224) The nitrite/nitrate level was measured as described above.

[4] = Body weight, rats with gastric injury without inflammation; format: in vivo; settings: 1.11 mmol/kg force-fed, one day after, FIG. 17
Method: The medicinal activity of the compound according to the invention and the pharmaceutical composition according to the invention was tested in a series of experiments performed on rats. The experiments were performed on male Sprague-Dawley rats (280-320 g) housed in plastic cages in a thermoneutral environment (21° C.±2° C.) with a 12 h dark-light cycle. The animals, fed on a normal diet with tap water ad libitum, were randomly allocated into experimental groups according to the feeding protocols.
as §1, with “weight).” for “weight). Group K (n=5) was force-fed 1.11 mmol/kg body weight of the compound according to the invention.”

Row | Structure (SMILES) | plasma TNF-α level (TNF-α) | activity of xanthine oxidase enzyme (xanthine oxidase enzyme [1]) | activity of xanthine oxidase enzyme (xanthine oxidase enzyme [2]) | concentration of the high mobility group protein B1 in the plasma [3] | nitrite/nitrate level (nitrite/nitrate (NOx)) | change in body weight [4]
1 | CC(=O)Oc1ccccc1C(=O)O [ASS, acetylsalicylic acid, reference compound] | increase in the plasma TNF-α level | increased activity | only a slight decrease in activity | increased | increased nitrite/nitrate level | severe loss of body weight
2 | CC(=O)Oc1ccccc1C(=O)NC(CO)(CO)CO [compound according to the invention] | almost no change | no such increase | enzyme activity comparable to that of healthy animals | comparable with the concentration in the plasma of the animals in the control group H | did not lead to an increase in the nitrite/nitrate level | only showed a minor loss in body weight
